In brackets after ≈: the same amount, converted by molar mass. Like-named read-outs stand apart in the source and are kept apart here. Numbered stars: 1 amine (or outer) side, 2 acyl side, 3 side chain; on linkers, the order of the positions; unused ones are H or OH. Bridge positions count the residues as written; N and C are the ends. Square brackets hold non-standard residues; d marks the D form. Peptide text beside a SMILES is read from it. dαMeOrn(Me) = CN(CCC[C@@](C)(N[*:1])C(=O)[*:2])[*:3]; dαMeDab(Me) = CN(CC[C@@](C)(N[*:1])C(=O)[*:2])[*:3]; X8 = CN(CC=[*:3])CCC[C@](C)(N[*:1])C(=O)[*:2]; X6 = CN(CC=[*:3])CC[C@](C)(N[*:1])C(=O)[*:2]; X4 = O=C([C@]1(N[*:1])CCN(CC=[*:3])C1)[*:2]; X5 = C[C@](CCCCCC=[*:3])(N[*:1])C(=O)[*:2]; X7 = C[C@](CCCCC=[*:3])(N[*:1])C(=O)[*:2]; X9 = C[C@](CCC=[*:3])(N[*:1])C(=O)[*:2]; X2 = O=C(OCC=CCOC(=O)[*:2])[*:1]; R8 = C=CCCCCCC[C@@](C)(N)C(=O)O; R5 = C=CCCC[C@@](C)(N)C(=O)O
What was measured:
[1] = Solubility in DPBS (A280 of supernatant); type: physicochemical; conditions: DPBS
Method: Suitable assays for assessing solubility are widely known in the art and can be utilized in accordance with the present disclosure. In some embodiments, in an exemplary protocol, dried peptide was reconstituted in DPBS (DPBS, 1×, cell culture grade, Sigma D8537) in triplicate, vortexed, sonicated and then centrifuged. Absorbance of the supernatant was measured at A280 (Nanodrop 2000) and the concentration was determined using the extinction coefficient for tryptophan. Exemplary solubility data are presented in, e.g., Table 2.

[2] = target: T1, full-length beta-catenin (Axin site) (Homo sapiens, UniProt P35222); assay: Competition fluorescence polarization assay (Axin site probe); type: binding; conditions: competition fluorescence polarization, Table 2; read-out: in vitro FP EC50
T1 construct: 15 nM full-length beta-catenin, 20 nM FITC labeled peptide in buffer
T1 sequence (P35222 1-781): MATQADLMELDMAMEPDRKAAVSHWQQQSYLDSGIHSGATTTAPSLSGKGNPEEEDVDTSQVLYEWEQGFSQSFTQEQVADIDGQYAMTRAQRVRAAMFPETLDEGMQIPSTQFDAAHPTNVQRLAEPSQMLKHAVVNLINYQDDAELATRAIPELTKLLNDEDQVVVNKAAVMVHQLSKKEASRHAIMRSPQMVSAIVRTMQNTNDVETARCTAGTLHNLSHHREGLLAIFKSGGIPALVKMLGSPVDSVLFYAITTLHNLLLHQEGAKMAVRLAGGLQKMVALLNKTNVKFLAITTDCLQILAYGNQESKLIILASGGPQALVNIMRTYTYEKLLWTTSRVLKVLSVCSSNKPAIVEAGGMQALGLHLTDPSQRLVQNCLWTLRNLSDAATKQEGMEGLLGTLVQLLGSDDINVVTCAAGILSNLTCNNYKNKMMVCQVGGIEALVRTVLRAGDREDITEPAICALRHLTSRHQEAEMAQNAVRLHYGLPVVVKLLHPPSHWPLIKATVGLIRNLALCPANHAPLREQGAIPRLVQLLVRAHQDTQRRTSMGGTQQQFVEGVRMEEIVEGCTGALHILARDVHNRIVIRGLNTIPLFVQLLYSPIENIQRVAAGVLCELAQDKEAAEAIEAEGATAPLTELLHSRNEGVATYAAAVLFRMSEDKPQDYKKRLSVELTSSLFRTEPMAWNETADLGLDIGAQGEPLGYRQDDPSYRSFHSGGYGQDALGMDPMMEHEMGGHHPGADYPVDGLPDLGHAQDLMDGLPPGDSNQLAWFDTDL
Summary of the method: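 Competition FP: 15 nM full-length β-catenin pre-incubated 5 min with 20 nM FITC-labelled stapled Axin-site peptide, then titrated peptide added (3-fold series from 5 μM) for 15 min in the dark. Buffer 50 mM Tris pH 8.0, 250 mM NaCl, 2% glycerol, 0.5 mM EDTA; duplicate reads.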

[3] = Table 3 Part B, amino-stapled product, read-out: Solubility in DPBS
[4] = Table 3 Part A, read-out: Solubility in DPBS

Solubility in DPBS ([1]; Table 3 Part A)	EC50 [2] [nM]	solubility ([1]; Table 2, read-out: Solubility) [µM]	solubility [1, 3] [µM]	solubility [1, 4] [µM]	SMILES
65 (Isomer 1) μM	< 100				CC[C@H](C)[C@@H]1NC(=O)[C@H](Cc2c[nH]cn2)NC(=O)[C@H](C)NC(=O)[C@H](CC(=O)O)NC(=O)[C@H](CC(C)C)NC(=O)[C@H]([C@@H](C)CC)NC(=O)[C@](C)(NC(=O)[C@H](C)NC(C)=O)CCCC=CCOC(=O)N(C)CCC[C@@](C)(C(=O)N[C@@H](CCCNC(=N)N)C(=O)N[C@H](C(=O)N[C@@H](Cc2c[nH]c3ccccc23)C(N)=O)C(C)C)NC1=O (single isomer, unassigned) [FP0510c Isomer 1, Ac-A-R5-I-L-D-A-H-I-MH-R-V-W-NH2]
31 (Isomer 2) μM	< 100				CC[C@H](C)[C@@H]1NC(=O)[C@H](Cc2c[nH]cn2)NC(=O)[C@H](C)NC(=O)[C@H](CC(=O)O)NC(=O)[C@H](CC(C)C)NC(=O)[C@H]([C@@H](C)CC)NC(=O)[C@](C)(NC(=O)[C@H](C)NC(C)=O)CCCC=CCOC(=O)N(C)CCC[C@@](C)(C(=O)N[C@@H](CCCNC(=N)N)C(=O)N[C@H](C(=O)N[C@@H](Cc2c[nH]c3ccccc23)C(N)=O)C(C)C)NC1=O (single isomer, unassigned) [FP0510c Isomer 2, Ac-A-R5-I-L-D-A-H-I-MH-R-V-W-NH2]
49 (Isomer 1) μM	< 100				CC[C@H](C)[C@@H]1NC(=O)[C@H](Cc2c[nH]cn2)NC(=O)[C@H](C)NC(=O)[C@H](CC(=O)O)NC(=O)[C@H](CC(C)C)NC(=O)[C@H]([C@@H](C)CC)NC(=O)[C@](C)(NC(=O)[C@H](C)NC(C)=O)CCCCC=CCOC(=O)N(C)CCC[C@@](C)(C(=O)N[C@@H](CCCNC(=N)N)C(=O)N[C@H](C(=O)N[C@@H](Cc2c[nH]c3ccccc23)C(N)=O)C(C)C)NC1=O (single isomer, unassigned) [FP0511c Isomer 1, Ac-A-R6-I-L-D-A-H-I-MH-R-V-W-NH2]
24 (Isomer 2) μM	< 100				CC[C@H](C)[C@@H]1NC(=O)[C@H](Cc2c[nH]cn2)NC(=O)[C@H](C)NC(=O)[C@H](CC(=O)O)NC(=O)[C@H](CC(C)C)NC(=O)[C@H]([C@@H](C)CC)NC(=O)[C@](C)(NC(=O)[C@H](C)NC(C)=O)CCCCC=CCOC(=O)N(C)CCC[C@@](C)(C(=O)N[C@@H](CCCNC(=N)N)C(=O)N[C@H](C(=O)N[C@@H](Cc2c[nH]c3ccccc23)C(N)=O)C(C)C)NC1=O (single isomer, unassigned) [FP0511c Isomer 2, Ac-A-R6-I-L-D-A-H-I-MH-R-V-W-NH2]
	> 5000	111 (≈ 171 µg/mL)	111 (≈ 171 µg/mL)		CC[C@H](C)[C@@H]1NC(=O)[C@H](Cc2c[nH]cn2)NC(=O)[C@H](C)NC(=O)[C@H](CC(=O)O)NC(=O)[C@H](CC(C)C)NC(=O)[C@H]([C@@H](C)CC)NC(=O)[C@](C)(NC(=O)[C@H](C)NC(C)=O)CCCCCCC=CCN2CC[C@@](C(=O)N[C@@H](CCCNC(=N)N)C(=O)N[C@H](C(=O)N[C@@H](Cc3c[nH]c4ccccc34)C(N)=O)C(C)C)(C2)NC1=O [FP0217a, Ac-A-R8-I-L-D-A-H-I-MB-R-V-W-NH2] (Ac-A[R8]ILDAHI[X4]RVW-NH2; staple 2-9)
	< 100	155 (≈ 250 µg/mL)			CC[C@H](C)[C@@H]1NC(=O)[C@H](Cc2c[nH]cn2)NC(=O)[C@H](C)NC(=O)[C@H](CC(=O)O)NC(=O)[C@H](CC(C)C)NC(=O)[C@H]([C@@H](C)CC)NC(=O)[C@](C)(NC(=O)[C@H](C)NC(=O)CCN)CCCCCCC=CCOC(=O)N2CC[C@@](C(=O)N[C@@H](CCCNC(=N)N)C(=O)N[C@H](C(=O)N[C@@H](Cc3c[nH]c4ccccc34)C(N)=O)C(C)C)(C2)NC1=O [FP0217c_bAfree, bA-A-R8-I-L-D-A-H-I-MB-R-V-W-NH2]
	< 100	26 (≈ 41.2 µg/mL)			CC[C@H](C)[C@@H]1NC(=O)[C@H](Cc2c[nH]cn2)NC(=O)[C@H](C)NC(=O)[C@H](CC(=O)O)NC(=O)[C@H](CC(C)C)NC(=O)[C@H]([C@@H](C)CC)NC(=O)[C@](C)(NC(=O)[C@H](C)NC(C)=O)CCCCCCCCCOC(=O)N2CC[C@@](C(=O)N[C@@H](CCCNC(=N)N)C(=O)N[C@H](C(=O)N[C@@H](Cc3c[nH]c4ccccc34)C(N)=O)C(C)C)(C2)NC1=O [FP0217rc, Ac-A-R8-I-L-D-A-H-I-MB-R-V-W-NH2]
	< 100	14 (≈ 21.2 µg/mL)			CC[C@H](C)[C@@H]1NC(=O)[C@H](Cc2c[nH]cn2)NC(=O)[C@H](C)NC(=O)[C@H](CC(=O)O)NC(=O)[C@H](CC(C)C)NC(=O)[C@H]([C@@H](C)CC)NC(=O)[C@](C)(NC(C)=O)CCCCCCC=CCOC(=O)N2CC[C@@](C(=O)N[C@@H](CCCNC(=N)N)C(=O)N[C@H](C(=O)N[C@@H](Cc3c[nH]c4ccccc34)C(N)=O)C(C)C)(C2)NC1=O [FP0220c, Ac-R8-I-L-D-A-H-I-MB-R-V-W-NH2]
	100 to 500	236 (≈ 364 µg/mL)	236 (≈ 364 µg/mL)		CC[C@H](C)[C@@H]1NC(=O)[C@H](Cc2c[nH]cn2)NC(=O)[C@H](C)NC(=O)[C@H](CC(=O)O)NC(=O)[C@H](CC(C)C)NC(=O)[C@H]([C@@H](C)CC)NC(=O)[C@](C)(NC(=O)[C@H](C)NC(C)=O)CCCCCC=CCN(C)CC[C@@](C)(C(=O)N[C@@H](CCCNC(=N)N)C(=O)N[C@H](C(=O)N[C@@H](Cc2c[nH]c3ccccc23)C(N)=O)C(C)C)NC1=O [FP0503a, Ac-A-R7-I-L-D-A-H-I-MF-R-V-W-NH2] (Ac-A[X5]ILDAHI[X6]RVW-NH2; staple 2-9)
	100 to 500	35 (≈ 55.5 µg/mL)		35 (≈ 55.5 µg/mL)	CC[C@H](C)[C@@H]1NC(=O)[C@H](Cc2c[nH]cn2)NC(=O)[C@H](C)NC(=O)[C@H](CC(=O)O)NC(=O)[C@H](CC(C)C)NC(=O)[C@H]([C@@H](C)CC)NC(=O)[C@](C)(NC(=O)[C@H](C)NC(C)=O)CCCCCC=CCOC(=O)N(C)CC[C@@](C)(C(=O)N[C@@H](CCCNC(=N)N)C(=O)N[C@H](C(=O)N[C@@H](Cc2c[nH]c3ccccc23)C(N)=O)C(C)C)NC1=O [FP0503c, Ac-A-R7-I-L-D-A-H-I-MF-R-V-W-NH2]
	500 to 5000	192 (≈ 291 µg/mL)	192 (≈ 291 µg/mL)		CC[C@H](C)[C@@H]1NC(=O)[C@H](Cc2c[nH]cn2)NC(=O)[C@H](C)NC(=O)[C@H](CC(=O)O)NC(=O)[C@H](CC(C)C)NC(=O)[C@H]([C@@H](C)CC)NC(=O)[C@](C)(NC(=O)[C@H](C)NC(C)=O)CCC=CCN(C)CCC[C@@](C)(C(=O)N[C@@H](CCCNC(=N)N)C(=O)N[C@H](C(=O)N[C@@H](Cc2c[nH]c3ccccc23)C(N)=O)C(C)C)NC1=O [FP0509a, Ac-A-R4-I-L-D-A-H-I-MH-R-V-W-NH2] (Ac-A[X9]ILDAHI[X8]RVW-NH2; staple 2-9)
	500 to 5000	165 (≈ 252 µg/mL)	165 (≈ 252 µg/mL)		CC[C@H](C)[C@@H]1NC(=O)[C@H](Cc2c[nH]cn2)NC(=O)[C@H](C)NC(=O)[C@H](CC(=O)O)NC(=O)[C@H](CC(C)C)NC(=O)[C@H]([C@@H](C)CC)NC(=O)[C@](C)(NC(=O)[C@H](C)NC(C)=O)CCCC=CCN(C)CCC[C@@](C)(C(=O)N[C@@H](CCCNC(=N)N)C(=O)N[C@H](C(=O)N[C@@H](Cc2c[nH]c3ccccc23)C(N)=O)C(C)C)NC1=O [FP0510a, Ac-A-R5-I-L-D-A-H-I-MH-R-V-W-NH2] (Ac-A[R5]ILDAHI[X8]RVW-NH2; staple 2-9)
	< 100	170 (≈ 262 µg/mL)	170 (≈ 262 µg/mL)		CC[C@H](C)[C@@H]1NC(=O)[C@H](Cc2c[nH]cn2)NC(=O)[C@H](C)NC(=O)[C@H](CC(=O)O)NC(=O)[C@H](CC(C)C)NC(=O)[C@H]([C@@H](C)CC)NC(=O)[C@](C)(NC(=O)[C@H](C)NC(C)=O)CCCCC=CCN(C)CCC[C@@](C)(C(=O)N[C@@H](CCCNC(=N)N)C(=O)N[C@H](C(=O)N[C@@H](Cc2c[nH]c3ccccc23)C(N)=O)C(C)C)NC1=O [FP0511a, Ac-A-R6-I-L-D-A-H-I-MH-R-V-W-NH2] (Ac-A[X7]ILDAHI[X8]RVW-NH2; staple 2-9)
	< 100	133 (≈ 219 µg/mL)		133 (≈ 219 µg/mL)	CC[C@H](C)[C@@H]1NC(=O)[C@H](Cc2c[nH]cn2)NC(=O)[C@H](C)NC(=O)[C@H](CC(=O)O)NC(=O)[C@H](CC(C)C)NC(=O)[C@H]([C@@H](C)CC)NC(=O)[C@](C)(NC(=O)[C@H](C)NC(C)=O)CCCN(C)C(=O)OCC=CCOC(=O)N(C)CC[C@](C)(C(=O)N[C@@H](CCCNC(=N)N)C(=O)N[C@H](C(=O)N[C@@H](Cc2c[nH]c3ccccc23)C(N)=O)C(C)C)NC1=O [FP0588c, Ac-A-MI-I-L-D-A-H-I-MG-R-V-W-NH2] (Ac-A[dαMeOrn(Me)]ILDAHI[dαMeDab(Me)]RVW-NH2; linker 2-9 via X2)

Reference: US11198713B2, “Agents modulating beta-catenin functions and methods thereof” (FOG PHARMACEUTICALS, INC., priority 2017, dated 2021)
